Test results from the supplement of paper PMC8617591.

Experiments:
[1] = system: Mycobacterium tuberculosis Erdman (autoluminescent); assay: total FIC50 (Loewe) at 50% inhibition, three-drug combination (log2); higher = more antagonistic
Experimental: (§1)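 DiaMOND equipotent three-drug combination dose responses (10 doses, 1.5- or 2-fold spacing, centred on IC90) against autoluminescent M. tuberculosis Erdman in 8 in vitro models. Read-out is OD600, or luminescence for the intracellular and dormancy models, normalised to untreated wells. Hill-fit Einf, AUC25 and GRinf are potency metrics; FIC50 and FIC90 are total Loewe fractional inhibitory concentrations as log2 (negative = synergy).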

[2] = system: Mycobacterium tuberculosis Erdman (autoluminescent); assay: GRinf, maximum normalised growth rate inhibition (three-drug combination) (unitless (-1 to 1)); higher = less effect (negative = killing)
Experimental: as §1

[3] = system: Mycobacterium tuberculosis Erdman (autoluminescent); assay: total FIC90 (Loewe) at 90% inhibition, three-drug combination (log2); higher = more antagonistic
Experimental: as §1

[4] = system: Mycobacterium tuberculosis Erdman (autoluminescent); assay: AUC25, normalised area under dose response up to IC25 (three-drug combination) (fraction (0-1)); higher = more potent at low dose
Experimental: as §1

[5] = system: Mycobacterium tuberculosis Erdman (autoluminescent); assay: Einf, fitted maximum growth inhibition of three-drug combination (fraction); higher = stronger maximal inhibition
Experimental: as §1

CC(=O)NC[C@H]1CN(c2ccc(N3CCOCC3)c(F)c2)C(=O)O1 [linezolid] + O=[N+]([O-])c1cn2c(n1)OC[C@@H](OCc1ccc(OC(F)(F)F)cc1)C2 [pretomanid] + CO[C@H]1/C=C/O[C@@]2(C)Oc3c(C)c(O)c4c(O)c(c(/C=N/N5CCN(C6CCCC6)CC5)c(O)c4c3C2=O)NC(=O)/C(C)=C\C=C\[C@H](C)[C@H](O)[C@@H](C)[C@@H](O)[C@@H](C)[C@H](OC(C)=O)[C@@H]1C [rifapentine]
Settings	AUC25, [4]	Einf, [5]	GRinf, [2]	total FIC50, [1]	total FIC90, [3]
in vitro model: acidic pH 5.7, time point: constant (~7 days, model-specific)	0.0833	0.887	0.0321	0.893	–
in vitro model: acidic pH 5.7, time point: terminal (~4-5 doublings, model-specific)	0.0609	0.978	0.00722	0.838	0.632
in vitro model: intracellular J774, time point: constant = terminal	–	0.953	-0.276	–	0.646

Settings	AUC25, [4]	Einf, [5]	GRinf, [2]	total FIC50, [1]	total FIC90, [3]
in vitro model: butyrate, time point: constant (~7 days, model-specific)	0.0937	0.91	-0.0425	0.403	0.09
in vitro model: butyrate, time point: terminal (~4-5 doublings, model-specific)	0.0716	0.955	0.0296	0.296	0.336
in vitro model: cholesterol 0.05 mM, time point: constant (~7 days, model-specific)	0.142	0.677	-0.167	0.533	–
in vitro model: cholesterol 0.05 mM, time point: terminal (~4-5 doublings, model-specific)	0.127	0.89	-0.198	0.278	0.6
in vitro model: cholesterol-high 0.2 mM, time point: constant (~7 days, model-specific)	0.0858	0.912	-0.159	0.139	0.124
in vitro model: cholesterol-high 0.2 mM, time point: terminal (~4-5 doublings, model-specific)	0.095	1	-0.71	0.348	0.313
in vitro model: dormancy (butyrate + nitrate, low O2), time point: constant (~7 days, model-specific)	0.0497	0.894	0.223	0.906	0.707
in vitro model: dormancy (butyrate + nitrate, low O2), time point: terminal (~4-5 doublings, model-specific)	0.0403	0.979	-0.0764	0.858	0.899
in vitro model: standard 7H9 glycerol, time point: constant = terminal	0.0904	0.932	-0.132	0.424	0.754
in vitro model: valerate, time point: constant (~7 days, model-specific)	0.159	0.913	-0.446	-1.08	–
in vitro model: valerate, time point: terminal (~4-5 doublings, model-specific)	0.125	0.966	-0.15	-0.336	1.3

CC(=O)NC[C@H]1CN(c2ccc(N3CCOCC3)c(F)c2)C(=O)O1 [linezolid] + O=[N+]([O-])c1cn2c(n1)OC[C@@H](OCc1ccc(OC(F)(F)F)cc1)C2 [pretomanid] + CO[C@H]1/C=C/O[C@@]2(C)Oc3c(C)c(O)c4c(O)c(c(/C=N/N5CCN(C)CC5)c(O)c4c3C2=O)NC(=O)/C(C)=C\C=C\[C@H](C)[C@H](O)[C@@H](C)[C@@H](O)[C@@H](C)[C@H](OC(C)=O)[C@@H]1C [rifampicin]
Settings	AUC25, [4]	Einf, [5]	GRinf, [2]	total FIC50, [1]	total FIC90, [3]
in vitro model: acidic pH 5.7, time point: constant (~7 days, model-specific)	0.0793	0.893	-0.221	0.745	–
in vitro model: acidic pH 5.7, time point: terminal (~4-5 doublings, model-specific)	0.0641	0.987	-0.265	0.832	0.521
in vitro model: intracellular J774, time point: constant = terminal	–	0.98	-0.287	–	0.288

Settings	AUC25, [4]	Einf, [5]	GRinf, [2]	total FIC50, [1]	total FIC90, [3]
in vitro model: butyrate, time point: constant (~7 days, model-specific)	0.0869	0.896	0.0695	0.127	0.148
in vitro model: butyrate, time point: terminal (~4-5 doublings, model-specific)	0.0669	0.948	0.0615	0.00331	-0.305
in vitro model: cholesterol 0.05 mM, time point: constant (~7 days, model-specific)	0.128	0.66	-0.0769	0.0451	–
in vitro model: cholesterol 0.05 mM, time point: terminal (~4-5 doublings, model-specific)	0.127	0.895	-0.203	0.545	-0.354
in vitro model: cholesterol-high 0.2 mM, time point: constant (~7 days, model-specific)	0.0921	0.885	-0.118	0.326	1.11
in vitro model: cholesterol-high 0.2 mM, time point: terminal (~4-5 doublings, model-specific)	0.0881	0.972	-0.505	0.645	0.499
in vitro model: dormancy (butyrate + nitrate, low O2), time point: constant (~7 days, model-specific)	0.0572	0.911	0.214	0.855	0.28
in vitro model: dormancy (butyrate + nitrate, low O2), time point: terminal (~4-5 doublings, model-specific)	0.0401	0.97	-0.0505	0.25	0.29
in vitro model: standard 7H9 glycerol, time point: constant = terminal	0.0674	0.915	0.0995	0.0346	-0.714
in vitro model: valerate, time point: constant (~7 days, model-specific)	0.1	0.89	-0.015	0.394	–
in vitro model: valerate, time point: terminal (~4-5 doublings, model-specific)	0.0505	0.925	0.0379	0.622	0.278

CC(=O)NC[C@H]1CN(c2ccc(N3CCOCC3)c(F)c2)C(=O)O1 [linezolid] + O=[N+]([O-])c1cn2c(n1)OC[C@@H](OCc1ccc(OC(F)(F)F)cc1)C2 [pretomanid] + NC(=O)c1cnccn1 [pyrazinamide]
Settings	AUC25, [4]	Einf, [5]	GRinf, [2]	total FIC50, [1]	total FIC90, [3]
in vitro model: acidic pH 5.7, time point: constant (~7 days, model-specific)	0.0949	0.856	-0.473	0.268	–
in vitro model: acidic pH 5.7, time point: terminal (~4-5 doublings, model-specific)	0.0835	0.975	-0.473	0.91	-0.88
in vitro model: intracellular J774, time point: constant = terminal	–	0.986	-0.287	–	0.7

Settings	AUC25, [4]	Einf, [5]	GRinf, [2]	total FIC50, [1]	total FIC90, [3]
in vitro model: butyrate, time point: constant (~7 days, model-specific)	0.104	0.885	0.0996	-0.0692	–
in vitro model: butyrate, time point: terminal (~4-5 doublings, model-specific)	0.0881	0.929	0.102	-0.254	0.667
in vitro model: cholesterol 0.05 mM, time point: constant (~7 days, model-specific)	0.14	0.706	-0.191	–	–
in vitro model: cholesterol 0.05 mM, time point: terminal (~4-5 doublings, model-specific)	0.145	0.93	-0.318	0.461	–
in vitro model: cholesterol-high 0.2 mM, time point: constant (~7 days, model-specific)	0.108	0.902	-0.152	0.147	–
in vitro model: cholesterol-high 0.2 mM, time point: terminal (~4-5 doublings, model-specific)	0.113	1	-1	0.0501	0.419
in vitro model: dormancy (butyrate + nitrate, low O2), time point: constant (~7 days, model-specific)	0.056	0.907	0.16	0.49	0.622
in vitro model: dormancy (butyrate + nitrate, low O2), time point: terminal (~4-5 doublings, model-specific)	0.0409	0.985	-0.287	0.47	0.511
in vitro model: standard 7H9 glycerol, time point: constant = terminal	0.0884	0.926	0.0609	0.706	–
in vitro model: valerate, time point: constant (~7 days, model-specific)	0.102	0.808	0.0778	-0.628	–
in vitro model: valerate, time point: terminal (~4-5 doublings, model-specific)	0.0792	0.891	0.177	-0.429	1.41
